Experimental data published in US20080235828A1 (University of Manitoba, priority 2004, published 2008).
Substitutions are numbered along the chain they refer to.

Legend:
FCA-WF protein = target: T1, FCA-WF protein (Arabidopsis thaliana, UniProt O04425, W619F); test: ABA binding assay with FCA-WF (mutated WW domain); settings: mutation in the second W of WW domain
T1 sequence (O04425 1-747 W619F): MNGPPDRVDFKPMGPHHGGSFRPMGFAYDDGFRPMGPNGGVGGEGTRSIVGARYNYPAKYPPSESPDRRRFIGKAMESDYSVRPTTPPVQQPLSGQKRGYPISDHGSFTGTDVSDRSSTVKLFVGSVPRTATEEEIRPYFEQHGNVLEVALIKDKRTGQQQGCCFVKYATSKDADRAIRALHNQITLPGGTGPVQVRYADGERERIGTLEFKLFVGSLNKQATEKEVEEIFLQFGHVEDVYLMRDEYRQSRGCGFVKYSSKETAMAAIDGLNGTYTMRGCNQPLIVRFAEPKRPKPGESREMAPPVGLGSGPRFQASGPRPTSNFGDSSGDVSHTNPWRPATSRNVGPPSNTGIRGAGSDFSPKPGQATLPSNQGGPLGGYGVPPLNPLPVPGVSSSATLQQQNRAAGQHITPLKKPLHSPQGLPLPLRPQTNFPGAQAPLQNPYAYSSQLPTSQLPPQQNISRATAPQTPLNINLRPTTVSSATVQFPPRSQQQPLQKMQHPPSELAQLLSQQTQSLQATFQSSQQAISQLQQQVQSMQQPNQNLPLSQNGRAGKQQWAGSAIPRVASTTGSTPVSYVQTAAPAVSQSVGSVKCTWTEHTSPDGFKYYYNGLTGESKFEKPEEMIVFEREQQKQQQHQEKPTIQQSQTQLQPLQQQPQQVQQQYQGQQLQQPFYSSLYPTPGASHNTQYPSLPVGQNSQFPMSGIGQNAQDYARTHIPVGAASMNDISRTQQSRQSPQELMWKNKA
Experimental: (§1) The GST:FCA-WW-FY interaction mixture was incubated for 90 minutes before 1 μM ^3H^+-ABA was added and the mixture pelletted, washed, and the dual activity for [^35S]-met-FY and ^3H^+-ABA were counted as described above.
Similarly, FCA-WF protein was used and binding assays were carried out as above. […] The FCA ^3H^+-ABA binding activity in the absence of FY reached approximately 50% saturation at 15 minutes and approximately 95% saturation at 45 minutes. Each data point represents triplicate assays and error bars represent standard deviation.

GST:FCA-WW-FY = test: ABA binding to and dissociation of pre-formed FCA-FY complex; set-up: species or system Arabidopsis
Chain of GST:FCA-WW-FY (O04425 591-747 limits assumed): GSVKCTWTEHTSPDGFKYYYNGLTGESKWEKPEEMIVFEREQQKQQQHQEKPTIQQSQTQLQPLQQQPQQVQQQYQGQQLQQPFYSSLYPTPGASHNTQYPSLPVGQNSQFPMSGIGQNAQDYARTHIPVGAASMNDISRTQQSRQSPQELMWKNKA
Experimental: as §1

FCA-RRM = test: Preliminary ABA-binding assays using crude lysate from FCA-RRM; set-up: species or system Arabidopsis
Experimental: All binding assays were carried out at a final volume of 200 μL at 4° C. for 45 minutes. The mixture was then rapidly filtered through a nitrocellulose membrane, washed with 0.5× binding buffer, air dried and counted in a scintillation counter (Wallac 1414 WinSpectral v1.40). Heat denatured FCA protein was used to used determine the protein nature of the FCA and BSA was used as a control. […] […] Specific binding was calculated by taking the difference for assays with only ^3H^+-ABA (total binding) and assays that also contained 5 μM (±)-ABA added at the same time as ^3H^+-ABA (non-specific binding). Binding was represented as the number of moles of ^3H^+-ABA per mole of FCA protein.

FCA protein = target: T2, FCA protein (Arabidopsis thaliana, UniProt O04425); test: ABA binding assay with purified recombinant FCA; set-up: other: in the absence of FY, at 15 min; other: in the absence of FY, at 45 min; fused on or other part: GST fused on; settings: in the absence of FY
T2 sequence (O04425 1-747 isoform O04425-1): T1 sequence (O04425 1-747 W619F) with F619W
Experimental: […] The mixture was then rapidly filtered through a nitrocellulose membrane, washed with 0.5× binding buffer, air dried and counted in a scintillation counter (Wallac 1414 WinSpectral v1.40). Heat denatured FCA protein was used to used determine the protein nature of the FCA and BSA was used as a control. All binding studies were carried out using three different GST affinity chromatography protein purifications with triplicate assays for each purification. […] Specific binding was calculated by taking the difference for assays with only ^3H^+-ABA (total binding) and assays that also contained 5 μM (±)-ABA added at the same time as ^3H^+-ABA (non-specific binding). Binding was represented as the number of moles of ^3H^+-ABA per mole of FCA protein.

abscisic acid [ABA]
3H+-ABA binding ratio relative to non-mutated FCA-WW protein (FCA-WF protein): virtually a similar ratio
disruption of FCA-FY complex (displacement of FY) (GST:FCA-WW-FY): capable of disrupting the FCA-FY complex
ABA binding activity of pre-formed FCA-FY complex (GST:FCA-WW-FY; 1 μM 3H+-ABA added after 90 min FCA-FY incubation): initially low but significantly increased after 45 minutes
3H+-ABA binding (FCA-RRM): did not show any
saturation of FCA 3H-(+)-ABA binding activity (FCA protein; at 15 min): approximately 50%
saturation of FCA 3H-(+)-ABA binding activity (FCA protein; at 45 min): approximately 95%
